Patent US8134015B2, “Compound inhibiting in vivo phosphorous transport and medicine containing the same” (Kyowa Hakko Kirin Co., Ltd., priority 2003, dated 2012)

Target: T1, rat NaPi-2b (Rattus norvegicus, UniProt Q9JJ09)
T1 construct: expressed in transfected cells; host or cells: Xenopus oocytes injected with cRNA
T1 sequence (Q9JJ09 1-695): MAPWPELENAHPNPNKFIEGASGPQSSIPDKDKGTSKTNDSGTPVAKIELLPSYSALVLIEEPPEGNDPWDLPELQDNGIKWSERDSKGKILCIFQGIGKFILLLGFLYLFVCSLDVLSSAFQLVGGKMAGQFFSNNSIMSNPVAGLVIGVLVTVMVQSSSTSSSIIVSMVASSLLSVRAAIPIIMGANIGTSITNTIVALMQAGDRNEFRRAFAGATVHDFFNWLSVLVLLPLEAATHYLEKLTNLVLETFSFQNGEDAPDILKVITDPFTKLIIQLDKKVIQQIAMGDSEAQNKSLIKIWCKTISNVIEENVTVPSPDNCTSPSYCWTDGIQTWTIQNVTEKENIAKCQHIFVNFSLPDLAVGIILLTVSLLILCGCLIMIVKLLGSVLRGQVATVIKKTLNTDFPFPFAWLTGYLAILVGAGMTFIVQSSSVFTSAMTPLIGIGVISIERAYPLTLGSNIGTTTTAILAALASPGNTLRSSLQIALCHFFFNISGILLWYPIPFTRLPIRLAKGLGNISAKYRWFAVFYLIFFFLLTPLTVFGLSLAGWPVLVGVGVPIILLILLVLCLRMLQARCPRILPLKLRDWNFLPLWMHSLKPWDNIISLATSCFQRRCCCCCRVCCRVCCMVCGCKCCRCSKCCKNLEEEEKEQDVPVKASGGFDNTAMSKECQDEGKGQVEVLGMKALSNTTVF
Test: Sodium-dependent phosphate uptake of Xenopus oocytes which expressed NaPi-2b (32P)
Assay type: cell-based
Details: Xenopus oocytes expressing rat NaPi-2b, 32P radioactive phosphorus; read-out: IC50 (phosphate uptake inhibitory activity)
Outline: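 Rat small-intestine NaPi-2b cRNA injected into Xenopus oocytes, expressed for 2 days. Sodium-dependent phosphate uptake measured with 32P; % inhibition at 300 and 100 μM taken from the same inhibition curve.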

| SMILES | IC50 |
| --- | --- |
| COc1cccc(/C=N/NC(=O)c2cc(Cl)ccc2NC(=O)c2cccc(CN3CCC(N4CCCCC4)CC3)c2)c1 [Compound 374, 3-[1,4′]Bipiperidinyl-1′-ylmethyl-N-[4-chloro-2-(3-methoxy-benzylidene-hydrazinocarbonyl)-phenyl]-benzamide] | 9.25 µM |
| Cc1csc(NC(=O)c2cccc(CN3CCC(CO)CC3)c2)c1C(=O)N/N=C/c1ccc(Cl)c(C(F)(F)F)c1 [Compound 603, N-[3-(4-Chloro-3-trifluoromethyl-benzylidene-hydrazinocarbonyl)-4-methyl-thiophen-2-yl]-3-(4-hydroxymethyl-piperidin-1-ylmethyl)-benzamide] | < 3 µM |
| CCN(CC)CCN(C)Cc1cccc(C(=O)Nc2ccc(Cl)cc2C(=O)N/N=C/c2cccc(F)c2)c1 [Compound 379, N-[4-Chloro-2-(3-fluoro-benzylidene-hydrazinocarbonyl)-phenyl]-3-{[(2-diethylamino-ethyl)-methyl-amino]-methyl}-benzamide] | 0.97 µM |
| Cc1ccc(/C=N/NC(=O)c2cc(Br)ccc2NC(=O)c2ccc(CN3CCC(O)CC3)cc2)cc1C [Compound 324, N-[4-Bromo-2-(3,4-dimethyl-benzylidene-hydrazinocarbonyl)-phenyl]-4-(4-hydroxy-piperidin-1-ylmethyl)-benzamide] | 4.43 µM |
| COc1ccc(NC(=O)c2ccc(OC)c(OC)c2)c(C(=O)N/N=C/c2ccc(C)cc2)c1 [Compound 144, 3,4-Dimethoxy-N-[4-methoxy-2-(4-methyl-benzylidene-hydrazinocarbonyl)-phenyl]-benzamide] | 5.02 µM |
| COc1ccc(NC(=O)c2ccc(OC)c(OC)c2)c(C(=O)N/N=C/c2ccc(C)c(C)c2)c1 [Compound 145, N-[2-(3,4-Dimethyl-benzylidene-hydrazinocarbonyl)-4-methoxy-phenyl]-3,4-dimethoxy-benzamide] | 3.82 µM |
| Cc1cccc(/C=N/NC(=O)c2cc(Br)ccc2NC(=O)c2cccs2)c1 [Compound 159, Thiophene-2-carboxylic acid [4-bromo-2-(3-methyl-benzylidene-hydrazinocarbonyl)-phenyl]-amide] | 4.35 µM |
| COc1cccc(/C=N/NC(=O)c2cc(Br)ccc2NC(=O)c2ccc(CNCCCN(C)c3ccccc3)cc2)c1 [Compound 763, N-[4-Bromo-2-(3-methoxy-benzylidene-hydrazinocarbonyl)-phenyl]-4-{[3-(methyl-phenyl-amino)-propylamino]-methyl}-benzamide] | 11.2 µM |
| Cc1ccc(/C=N/NC(=O)c2cc(F)ccc2NC(=O)c2cc(F)ccc2NC(=O)c2cccc(CN(CC(C)O)CC(C)O)c2)cc1C (stereo not shown) [Compound 986, 2-(3-{[Bis-(2-hydroxy-propyl)-amino]-methyl}-benzoylamino)-N-[2-(3,4-dimethyl-benzylidene-hydrazinocarbonyl)-4-fluoro-phenyl]-5-fluoro-benzamide] | 29 µM |
| Cc1ccc(/C=N/NC(=O)c2cc(Br)ccc2NC(=O)c2ccc(CSCCO)cc2)cc1C [Compound 265, N-[4-Bromo-2-(3,4-dimethyl-benzylidene-hydrazinocarbonyl)-phenyl]-4-(2-hydroxy-ethylsulfanylmethyl)-benzamide] | < 1 µM |
| COc1cc(OC)cc(C(=O)Nc2ccc(Br)cc2C(=O)N/N=C/c2ccc(C)cc2)c1 [Compound 119, N-[4-Bromo-2-(4-methyl-benzylidene-hydrazinocarbonyl)-phenyl]-3,5-dimethoxy-benzamide] | 0.74 µM |
| O=C(Nc1sc2c(c1C(=O)N/N=C/c1cccc(F)c1)CCCC2)c1cccc(CN2CCN(CCO)CC2)c1 [Compound 624, N-[3-(3-Fluoro-benzylidene-hydrazinocarbonyl)-4,5,6,7-tetrahydro-benzo[b]thiophen-2-yl]-3-[4-(2-hydroxy-ethyl)-piperazin-1-ylmethyl]-benzamide] | < 3 µM |
| O=C(Nc1ccc(Br)cc1C(=O)N/N=C/c1cccc(F)c1)c1ccc(CNCCN2CCOCC2)cc1 [Compound 713, N-[4-Bromo-2-(3-fluoro-benzylidene-hydrazinocarbonyl)-phenyl]-4-[(2-morpholin-4-yl-ethylamino)-methyl]-benzamide] | 15.5 µM |
| O=C(Nc1ccccc1C(=O)N/N=C/c1ccccc1F)c1ccccc1 [Compound 225, N-[2-(2-Fluoro-benzylidene-hydrazinocarbonyl)-phenyl]-benzamide] | 61 µM |
| O=C(Nc1ccc(Br)cc1C(=O)N/N=C/c1ccc(F)cc1)c1cccc(CSc2ccncc2)c1 [Compound 196, N-[4-Bromo-2-(4-fluoro-benzylidene-hydrazinocarbonyl)-phenyl]-3-(pyridin-4-ylsulfanylmethyl)-benzamide] | 0.61 µM |
| CCN(CC)CC(O)COc1ccc(NC(=O)c2cccc(CN(CC(C)O)CC(C)O)c2)c(C(=O)N/N=C/c2ccc(Cl)c(C(F)(F)F)c2)c1 (stereo not shown) [Compound 952, 3-{[Bis-(2-hydroxy-propyl)-amino]-methyl}-N-[2-(4-chloro-3-trifluoromethyl-benzylidene-hydrazinocarbonyl)-4-(3-diethylamino-2-hydroxy-propoxy)-phenyl]-benzamide] | 19.2 µM |
| COc1ccc(/C=N/NC(=O)c2cc(Cl)ccc2NC(=O)c2ccc(OC)c(OC)c2)cc1OC [Compound 126, N-[4-Chloro-2-(3,4-dimethoxy-benzylidene-hydrazinocarbonyl)-phenyl]-3,4-dimethoxy-benzamide] | 6.43 µM |
| Cn1cccc1/C=N/NC(=O)c1cc(Br)ccc1NC(=O)c1cccnc1 [Compound 211, N-[4-Bromo-2-(1-methyl-1H-pyrrol-2-ylmethylene-hydrazinocarbonyl)-phenyl]-nicotinamide] | 69.1 µM |
| CCN(CCO)Cc1cccc(C(=O)Nc2ccc(Cl)cc2C(=O)N/N=C/c2cccc(OC)c2)c1 [Compound 428, N-[4-Chloro-2-(3-methoxy-benzylidene-hydrazinocarbonyl)-phenyl]-3-{[ethyl-(2-hydroxy-ethyl)-amino]-methyl}-benzamide] | 1.82 µM |
| COc1ccc(C(=O)Nc2ccc(Br)cc2C(=O)N/N=C/c2ccc(F)cc2)cc1OC [Compound 61, N-[4-Bromo-2-(4-fluoro-benzylidene-hydrazinocarbonyl)-phenyl]-3,4-dimethoxy-benzamide] | 0.31 µM |
| CCN1CC(NCc2ccc(C(=O)Nc3ccc(Br)cc3C(=O)N/N=C/c3ccc(Cl)c(C(F)(F)F)c3)cc2)CN1CC [Compound 754, N-[4-Bromo-2-(4-chloro-3-trifluoromethyl-benzylidene-hydrazinocarbonyl)-phenyl]-4-[(1,2-diethyl-pyrazolidin-4-ylamino)-methyl]-benzamide] | < 3 µM |
| CCN(CC)CCNCc1cccc(C(=O)Nc2scc(C)c2C(=O)N/N=C/c2ccc(OC)cc2)c1 [Compound 586, 3-[(2-Diethylamino-ethylamino)-methyl]-N-[3-(4-methoxy-benzylidene-hydrazinocarbonyl)-4-methyl-thiophen-2-yl]-benzamide] | < 3 µM |
| CCN(CC)CCN(C)Cc1cccc(C(=O)Nc2sccc2C(=O)N/N=C/c2ccc(Cl)c(C(F)(F)F)c2)c1 [Compound 668, N-[3-(4-Chloro-3-trifluoromethyl-benzylidene-hydrazinocarbonyl)-thiophen-2-yl]-3-{[(2-diethylamino-ethyl)-methyl-amino]-methyl}-benzamide] | 9.13 µM |
| Cc1ccc(/C=N/NC(=O)c2cc(OCCCN3CCCCC3)ccc2NC(=O)c2cccc(CSCCO)c2)cc1C [Compound 1041, N-[2-(3,4-Dimethyl-benzylidene-hydrazinocarbonyl)-4-(3-piperidin-1-yl-propoxy)-phenyl]-3-(2-hydroxy-ethylsulfanylmethyl)-benzamide] | 10.2 µM |

Same assay, conditions: phosphate uptake, oocytes expressing rat NaPi-2b; 300 μM, determined from inhibition curve

| SMILES | inhibition at 300 µM |
| --- | --- |
| COc1ccc(C(=O)Nc2ccccc2C(=O)N/N=C/c2cccc(C)n2)cc1OC [Compound 247, 3,4-Dimethoxy-N-[2-(6-methyl-pyridin-2-ylmethylene-hydrazinocarbonyl)-phenyl]-benzamide] | 34.8% |
| CCN(CC)CCN(C)Cc1cccc(-c2nc3sc4c(c3c(=O)n2/N=C/c2ccc(Cl)c(C(F)(F)F)c2)CCCC4)c1 [Compound 674, 3-[(4-Chloro-3-trifluoromethyl-benzylidene)-amino]-2-(3-{[(2-diethylamino-ethyl)-methyl-amino]-methyl}-phenyl)-5,6,7,8-tetrahydro-3H-benzo[4,5]thieno[2,3-d]pyrimidin-4-one] | 85.1% |
| CCN(CC)CCNCc1cccc(C(=O)Nc2c(C)csc2C(=O)N/N=C/c2cccc(F)c2)c1 [Compound 538, 3-[(2-Diethylamino-ethylamino)-methyl]-N-[2-(3-fluoro-benzylidene-hydrazinocarbonyl)-4-methyl-thiophen-3-yl]-benzamide] | 30.3% |
| COc1ccc(/C=N/NC(=O)c2cc(Br)ccc2NC(=O)c2ccc(CNCCCN(C)c3ccccc3)cc2)cc1 [Compound 762, N-[4-Bromo-2-(4-methoxy-benzylidene-hydrazinocarbonyl)-phenyl]-4-{[3-(methyl-phenyl-amino)-propylamino]-methyl}-benzamide] | 52.1% |
